{
  "source": "patent US9062308B2",
  "about": "“Compositions and methods for treatment of tamoxifen resistant breast cancer” (The Johns Hopkins University, priority 2011, dated 2015)",
  "key": {"[1]": {"test_system": "TGFα and HB-EGF", "test": "TGFα and HB-EGF expression in MCF-10A-B7 cells under EGFR inhibition", "format": "cell-based"}, "[2]": {"test_system": "MCF-7-TMR cells", "test": "Soft agar colony formation in MCF-7-TMR cells", "format": "cell-based", "procedure": "(§1) (2A) Immunoblot analysis of Phospho-EGFR (Y1068), EGFR, Phospho-MAPK, MAPK, Phospho-ERα (S118), ERα, and HOXB7 expression in MCF-7 cells treated long-term with either vehicle or 0.1 μM TAM (TMR1) or 1 μM TAM (TMR2). (2B) Immunoblot analysis of EGFR, Phospho-MAPK, MAPK and HOXB7 expression in MCF-7-TMR cells and BT474 transfected with either scrambled sequence siRNA or HOXB7-specific siRNA. (2C) Soft agar colony formation in BT474 cells and MCF-7-TMR cells transfected with either scrambled sequence siRNA or HOXB7-specific siRNA treated with Vehicle or 1 μM TAM.\n(§2) HOXB7 in the acquisition of anti-estrogen resistance. Because of the observation of a striking similarity in phenotype between prolonged endocrine therapy primed TAM-resistant models and our HOXB7 overexpressing cells, the hypothesis that HOXB7 is a mediator of anti-estrogen resistance was investigated. MCF-7 cell lines were derived, and exposed to either vehicle or TAM (0.1 μM or 1 μM) for over 12 months (designated MCF-7-TMR1 or MCF-7-TMR2 respectively)."}, "[3]": {"test_system": "HOXB7 mRNA", "test": "Real time quantitative PCR analysis of HOXB7 mRNA levels", "format": "cell-based", "procedure": "(4A) Real time quantitative PCR analysis of HOXB7 mRNA levels in MCF-7 cells. Cells were incubated in estrogen deprived condition for 72 hours [DMEM phenol red-free medium containing 5% Dextran charcoal stripped serum (DCC-FBS)]; the cells were then treated with 0.1-100 nM estrogen (E2); […]; Inset: Semi-quantitative RT-PCR analysis of HOXB7 mRNA following 1 uM TAM treatment for 24 hour. (4B) Real time quantitative PCR analysis of HOXB7. mRNA levels in MDA-MB-231 and MDA-MB-453 cells were transiently transfected with ERα expression plasmid and vector control for 48 hours. ERIN, a ERα overexpressed cell line, was used with MCF10A as a control. (4C) Immunoblot analysis of HOXB7 and ERα expression levels in transient transfectants of MDA-MB-231-ERα.\nReal-time PCR of HOXB7 expression. HOXB7 gene expression was quantitated by Taqman real-time quantitative PCR in triplicate in 96-well plate using an ABI 7900HT (Applied Biosystems) using cDNA derived from our previously published cohort of tumor samples (Cancer research 62(3):827-834). The sequences of the HOXB7 PCR primer pairs and fluorogenic MGB probe (5′ to 3′), respectively, are: AAAACCTACCACTCGCGTGTTC (SEQ ID NO: 5), GGA CGG GAA GCA AGA AGC A (SEQ ID NO: 6), and VIC-CAA GCG CCT GGC TG (SEQ ID NO: 7)."}, "[4]": {"test_system": "LTED cells", "conditions": "MCF-7-LTED cells; cited from earlier work"}, "[5]": {"test_system": "MCF-7-B7 cells", "test": "TAM treatment in culture, apoptosis and cell viability, MCF-7-B7 cells", "format": "cell-based", "conditions": "MCF-7-B7 cells in culture"}, "[6]": {"test_system": "MCF-7-B7 xenografts", "test": "Xenograft analysis, tumor growth of MCF-7-B7 cells implanted s.c. in athymic mice", "format": "in vivo", "conditions": "MCF-7-B7 xenografts in immunodeficient mice; TAM 83.3 μg/day; no exogenous estrogen supplement", "procedure": "(§3) FIG. 3 depicts evidence that HOXB7 promotes TAM resistance. (3A) Immunoblot analysis of Phospho-EGFR, EGFR, P-MAPK, MAPK and HOXB7 expression levels in MCF-7-Vec and MCF-7-HOXB7 cells. (3B) Tumor growth curve of MCF-7-HOXB7 cells implanted s.c. in athymic Swiss female mice and treated with either vehicle or TAM (83.3 μg/day), in the absence of an exogenous estrogen supplement. […] (3D) Semi quantitative RT-PCR analysis of mRNA expression levels of TGFα, HB-EGF and Amphiregulin in HOXB7 expressing MCF-7 cells and their vector controls (left); Amphiregulin or TGFα mRNA expression in MCF-7-vec and MCF-7-B7 cells treated with either scrambled sequence siRNA or ERα-specific siRNA (right) (3E) Diagram representing the HOXB7 binding sites in EGFR promoter region. MCF-7 cells were transfected with pcDNA3-Flag-HOXB7 and Vector plasmid, ChIP was performed by IP with either anti-Flag M2 antibody or control IgG. (3F) Luciferase activity of deletion/truncation constructs of the EGFR promoter, with (solid box) and without (slashed box) transfected HOXB7 plasmid, to map minimal region necessary for activation by HOXB7.\nXenograft Analysis. […] At necropsy, primary tumors, liver, lung and spleen were evaluated for the presence of macroscopic tumors. […]"}, "[7]": {"test_system": "MCF-7-B7 cells", "test": "Soft agar colony formation by MCF-7-B7 cells", "format": "cell-based", "procedure": "as §3"}, "[8]": {"test_system": "MCF-7-Vec cells", "test": "TAM treatment in culture, apoptosis and cell viability, MCF-7-Vec cells", "format": "cell-based", "conditions": "MCF-7-Vec cells in culture"}, "[9]": {"test_system": "EGFR, p44/42 MAPK and ERα phosphorylation", "test": "EGFR signaling in estrogen deprived MCF-7-B7 cells treated with TAM", "format": "cell-based", "source_text": "These observations indicate that under the treatment conditions, nongenomic ERα action occurred to activate EGFR signaling."}, "[10]": {"test_system": "EGFR, MAPK, ERα and HOXB7", "test": "Immunoblot analysis of MCF-7 cells treated long-term with TAM", "format": "cell-based", "procedure": "as §1, §2"}, "[11]": {"test_system": "ERα-positive breast cancer", "conditions": "patients with acquired resistance who progress on TAM; cited from earlier work"}, "[12]": {"test_system": "EGFR, p44/42 MAPK, ARG and TGFα", "test": "EGFR activity and EGFR ligand levels in MCF-7-B7 cells after ER downregulation", "format": "cell-based", "procedure": "as §3"}, "[13]": {"test_system": "BT474 cells", "test": "Soft agar colony formation in BT474 cells", "format": "cell-based", "conditions": "1 μM gefitinib and 1 μM TAM", "procedure": "as §1"}},
  "data": [
    {"smiles": "COc1cc2ncnc(Nc3cccc(Cl)c3)c2cc1OC", "note": "[AG1478]", "values": [
      {"measurement": "elevated expression of TGFα and HB-EGF", "setting": "[1]", "value": "significantly abrogated"}
    ]},
    {"smiles": "CC/C(=C(\\c1ccccc1)c1ccc(OCCN(C)C)cc1)c1ccccc1", "note": "[TAM, tamoxifen]", "values": [
      {"measurement": "resistance to TAM treatment by colony formation assay", "setting": "[2]; MCF-7-TMR1 cells (0.1 μM TAM for over 12 months), data not shown", "value": "significant resistance to TAM treatment"},
      {"measurement": "HOXB7 mRNA levels", "setting": "[3]; MCF-7 and T47D cells, tamoxifen in medium containing 10% FBS", "value": "increased"},
      {"measurement": "downregulation of HOXB7 expression by estradiol", "setting": "[3]; tamoxifen added to estradiol", "value": "abrogated"},
      {"measurement": "sensitivity of LTED cells", "setting": "[4]", "value": "refractory"},
      {"measurement": "sensitivity to TAM treatment (apoptosis, cell viability)", "setting": "[5]", "value": "minimally sensitive"},
      {"measurement": "tumor growth response to TAM", "setting": "[6]", "value": "failed to respond to the inhibitory effects of TAM"},
      {"measurement": "colony formation in soft agar in the presence of tamoxifen", "setting": "[7]; TAM 1 μM", "value": "at frequencies similar to vehicle treated cells"},
      {"measurement": "apoptosis and cell viability", "setting": "[8]", "value": "increased apoptosis and decreased cell viability"},
      {"measurement": "active EGFR, p44/42 MAPK activity and ERα phosphorylation", "setting": "[9]; MCF-7-B7 cells in estrogen deprived conditions, TAM for 24 hours, vs MCF-7-Vec cells", "value": "significantly higher levels of active forms of EGFR, increased p44/42 MAPK activity and ERα phosphorylation"},
      {"measurement": "phosphorylation of EGFR, p44 MAPK and ER", "setting": "[9]; estrogen deprived MCF-7-B7 cells, 1 μM TAM for 0-30 minutes, data not shown", "value": "elevated phosphorylation of EGFR, activation of p44 MAPK, and ER phosphorylation at Serine 118"},
      {"measurement": "HOXB7 expression", "setting": "[10]; MCF-7-TMR cells (long-term TAM)", "value": "upregulated"},
      {"measurement": "levels of HOXB7 expression over time", "setting": "[10]; MCF-7 cells, 0.1 μM TAM, 0, 2, 4, 6 months, data not shown", "value": "progressively increasing levels of HOXB7 expression"},
      {"measurement": "expression of EGFR, activated MAPK and ERα, total ERα", "setting": "[10]; MCF-7 cells, TAM 0.1 μM or 1 μM for over 12 months", "value": "elevated expression of EGFR and activated MAPK and ERα, but no significant change of total ERα"}
    ]},
    {"smiles": "C[C@]12CC[C@@H]3c4ccc(O)cc4CC[C@H]3[C@@H]1CC[C@@H]2O", "note": "[estradiol, 17β-estradiol]", "values": [
      {"measurement": "HOXB7 expression", "setting": "[3]; estradiol stimulation in estrogen-deprived growth conditions (5% charcoal stripped serum)", "value": "significantly reduced"}
    ]},
    {"smiles": "C[C@]12CC[C@@H]3c4ccc(O)cc4C[C@@H](CCCCCCCCC[S+]([O-])CCCC(F)(F)C(F)(F)F)[C@H]3[C@@H]1CC[C@@H]2O", "note": "(stereo partly shown) [fulvestrant]", "values": [
      {"measurement": "sensitivity of LTED cells", "setting": "[4]", "value": "sensitive"},
      {"measurement": "patients who respond", "setting": "[11]", "value": 20, "unit": "%"},
      {"measurement": "EGFR and p44/42 MAPK activity", "setting": "[12]; HOXB7 overexpression (MCF-7-B7 cells)", "value": "modestly reduced increases in EGFR and p44/42 MAPK activity"},
      {"measurement": "levels of the autocrine/paracrine EGFR ligands (ARG and TGFα)", "setting": "[12]; MCF-7-B7 cells", "value": "significant reduction"}
    ]},
    {"smiles": "COc1cc2ncnc(Nc3ccc(F)c(Cl)c3)c2cc1OCCCN1CCOCC1", "note": "[gefitinib]", "values": [
      {"measurement": "effect on TAM action, soft agar colony formation", "setting": "[2]; MCF-7-TMR cells, 1 μM gefitinib and 1 μM TAM", "value": "dramatically converted TAM to a potent antagonist"},
      {"measurement": "effect on TAM action, soft agar colony formation", "setting": "[13]", "value": "dramatically converted TAM to a potent antagonist"},
      {"measurement": "re-sensitization to TAM treatment, soft agar colony formation", "setting": "[7]; 1 μM gefitinib with TAM 1 μM", "value": "significantly re-sensitized them to TAM treatment"}
    ]}
  ]
}
